According to PubChem BioAssay AID179 (DTP/NCI, 2004):
Where “and” joins values, the source holds several entries; their conditions need not be identical. Identical values can stand only once. Calls of active or inactive are those of the source.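 Rule for the calls: active = compounds giving half or more protection of infected cells from virus-caused growth loss, again on retest; inactive = the rest.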

Test system: CEM cells HIV-1 protection, formazan growth assay
Assay: NCI AIDS Antiviral Assay
Conditions: for IC50: measured here: growth of uninfected CEM cells
In short: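 CEM (human) cells, HIV-1 infected vs uninfected, 5-point dosing, formazan growth read-out. Retest threshold 50% protection.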

| SMILES | EC50 [µM] | IC50 | outcome |
| --- | --- | --- | --- |
| Cc1ccccc1NC(=O)CC(=O)NNC(Sc1ccccc1)c1cc(N=Nc2ccc(Br)cc2)ccc1O (stereo unspecified) | > 100 | 1.23 µM |  |
| O=C(NCc1ccccc1)c1cc2ccc(O)c(O)c2cn1 | > 100 | 1.7 µM and > 6.31 µM |  |
| N#CC12C3C4CC5C6C4C1C6C(O)(C53)N2Cc1ccccc1 (stereo unspecified) | > 447 | 257 µM |  |
| CC1N(N2C(=O)CS(=O)(=O)C2C)C(=O)CS1(=O)=O (stereo unspecified) | > 200 | > 200 µM |  |
| CN1CCN(C(=S)N(C(=O)c2cccs2)C2CCCCC2)CC1 | > 195 | 91.2 µM |  |
| C=CCN(Cc1ccncc1)C(=O)C(O)(c1ccccc1)c1ccccc1 | > 200 | 186 µM |  |
| COC1OC(COC(=O)c2ccccc2)C(OC(=O)c2ccccc2)C1NC(C)=O (stereo unspecified) | > 200 | > 200 µM |  |
| C[N+](C)(C)CC(=O)N/N=C(/Cc1nc2ccc(Cl)cc2[nH]c1=O)C1=NS(=O)(=O)c2cc(S(N)(=O)=O)c(Cl)cc2N1 | > 269 | > 269 µM |  |
| O=C(OCC1OC(OC(=O)c2cc(O)c(O)c(OC(=O)c3cc(O)c(O)c(O)c3)c2)C(OC(=O)c2cc(O)c(O)c(OC(=O)c3cc(O)c(O)c(O)c3)c2)C(OC(=O)c2cc(O)c(O)c(OC(=O)c3cc(O)c(O)c(O)c3)c2)C1OC(=O)c1cc(O)c(O)c(OC(=O)c2cc(O)c(O)c(O)c2)c1)c1cc(O)c(O)c(OC(=O)c2cc(O)c(O)c(O)c2)c1 (stereo unspecified) | > 60.3 | 6.76 µM |  |
| CC1(C)OC2OC(C(COS(=O)(=O)C(F)(F)F)N=[N+]=[N-])C(OC(=O)c3ccccc3)C2O1 (stereo unspecified) | > 200 | > 200 µM |  |
| CC(C)=CCN1c2ccccc2[C@@]2(CC=C(C)C)CCN(C)[C@@H]12 | > 200 | 33.1 µM |  |
| CC(C)=CCC[C@@H](C)C1=C(Nc2ccccc2Cl)C(O)=C(C)C(=O)C1=O | > 200 | 1.55 µM |  |
| COC1=NC(NC2OCC(O)C(O)C2O)=C(NC(C)=O)CN1C (stereo unspecified) | > 200 | > 200 µM |  |
| COc1cccc(CCCNC(=O)Cc2ccccc2CO)c1 | > 200 | > 200 µM |  |
| COC(=O)c1c/c(=N\NC(=O)CC(=O)Nc2ccccc2Cl)c2ccccc2o1 | 166 | 302 µM |  |
| CC1(C)OCC2OC3(c4nc(C#N)c(N)o4)OC(C)(C)OC3C2O1 (stereo unspecified) | > 50.1 | > 50.1 µM |  |
| CN(C)Cc1cc(N=Nc2ccccc2)ccc1O | > 200 | 102 µM |  |
| CCCCc1ccc(Nc2nc(N)c3[nH]cnc3n2)cc1 | > 200 | 24.5 µM |  |
| CCNC(=O)N(CC)CN(CC)C(=O)NCC | > 182 | 95.5 µM |  |
| Cc1cc(Br)ccc1NC1=CC(=O)C(=O)c2ccccc21 | > 2.19 | > 2.19 µM |  |
| CCCN1C(=O)c2cc(=O)[nH]c(O)c2C1C (stereo unspecified) | > 117 | 81.3 µM |  |

| SMILES | EC50 [µM] | IC50 | outcome |
| --- | --- | --- | --- |
| Cc1ccc2c(c1C)C(=O)/C(=C/c1ccccc1C(=O)O)C2 | 38 | 93.3 µM |  |
| CC1(C)CCC[C@@]2(C)C1CC[C@H]1CC(O)C3(C)CCC12C3 (stereo partly specified) | > 12.3 | > 12.3 µM |  |
| COc1ccc(S(=O)(=O)c2ccccc2[N+](=O)[O-])cc1 |  |  | active |
| CC(=O)Nc1ccc(S(=O)(=O)N/N=C/c2cc(I)cc([N+](=O)[O-])c2O)cc1 | > 501 | 79.4 µM |  |
| CC(C)(C)C(=O)/C=C/c1cccc([N+](=O)[O-])c1 | > 58.9 | 8.71 µM |  |
| CC(=O)C(CN1CCOCC1)C(c1ccccc1)c1c(O)c2ccccc2oc1=O (stereo unspecified) | > 89.1 | 55 µM |  |
| Cc1nc2sccn2c1C(=O)N/N=C1\SCC(=O)N1C | > 427 | > 427 µM |  |
| CC1COC(C)(C)P(c2ccccc2)C1 (stereo unspecified) | > 1120 | > 1120 µM |  |
| CCCCN1C[C@H](OC(=O)CCC)[C@@H](OC(=O)CCC)[C@H](OC(=O)CCC)[C@H]1COC(=O)CCC | > 200 | > 200 µM |  |
| O=C1C2=C(c3ccccc31)C(c1ccc(F)cc1)N1C(=O)CCSC1=N2 (stereo unspecified) | > 37.2 | > 37.2 µM |  |
| COC(=O)C1CCC(=O)N1C(c1ccc2c(c1)OCO2)c1cc(OC)c(OC)c(OC)c1 (stereo unspecified) | > 200 | > 200 µM |  |
| O=C1c2cc3c(cc2CC12Cc1cc4c(cc1C2=O)CCC4)CCC3 | 158 | > 200 µM |  |
| C/C(=N/NC(=O)c1ccccc1O)c1ccc(/C(C)=N\NC(=O)c2ccccc2O)c2nc3cc(C)c(C)cc3nc12 | > 64.6 | > 64.6 µM |  |
| CCOC(OC1=CCCC1)C(C)[Se]c1ccccc1 (stereo unspecified) | > 22.4 | > 22.4 µM |  |
| Cc1ccc(C(=O)O)cc1S(=O)(=O)Nn1cnc2ccc(S(=O)(=O)Nc3ccccc3C(=O)O)cc2c1=O | > 200 | > 200 µM |  |
| COc1ccc(N2C(=O)CC(c3c[nH]c4ncccc34)C2=O)cc1 (stereo unspecified) | > 200 | 42.7 µM |  |
| COC(=O)c1nc(-c2ccc(Cl)c(Cl)c2)nc2ccc(Cl)cc12 |  |  | inactive |
| N#Cc1cc2c(n(C3OC(CO)C(O)C(O)C3O)c1=S)CCCCCC2 (stereo unspecified) | > 200 | > 200 µM |  |
| c1ccc(SC(CCCCC(Sc2ccccc2)Sc2ccccc2)Sc2ccccc2)cc1 |  |  | inactive |
| CCOC(=O)c1ccc(NC(=O)Nc2cc(C)ccn2)cc1 | > 200 | > 200 µM |  |
| COc1ccc(/C=C/c2cc(OC)c(OC)c(OC)c2)cc1O[Si](C)(C)C(C)(C)C | > 8.71 | 0.479 µM |  |
